One molecule from article PMC5507300, “Antibacterial small molecules targeting the conserved TOPRIM domain of DNA gyrase” (PLoS ONE, 2017) can be followed below.

Format in all cases: cell-based
One test deals with E. coli HS151 (ΔtolC). The test is described as follows: microbe, parasite or virus in culture. As to conditions: Escherichia coli, Table 3; HS151. From the text: (§1) E. coli HS151 (ΔtolC) has been described previously. […] E. coli BW25113 and the Keio gene deletion collection based on BW25113 [25] were obtained from Thermo Fisher Scientific (Waltham, MA) and described in [26]. The plasmid-borne FQ resistance determinant, qnrVC3 [27], was kindly provided by D. Hooper (Massachusetts General Hospital). […] MB2884 (E. coli) and CL15245 (K. pneumoniae) are clinical isolates from the Merck & Co., Inc., Kenilworth, NJ, USA, strain collection. S. aureus COL is a methicillin-resistant clinical isolate.
(§2) Compound doubling dilutions were prepared in 100% DMSO (Sigma Aldrich) and 2 μL of each dilution was transferred to a 96-well plate with lid (Thermo Scientific). Inoculum for all MIC testing was prepared using the BBL Prompt Inoculation System (Becton Dickinson, Franklin Lakes, NJ USA) as described by the manufacturer to produce a suspension of cells at approximately 1.5 x 10^8 colony forming units (CFU)/mL [34–36] and a further dilution (1:1000) was made into cation adjusted Mueller-Hinton broth (CAMH broth, Becton-Dickinson). One hundred μL of this inoculum were then transferred to each well of the 96-well plate containing diluted compound (above). Plates were covered and incubated overnight (18 hrs.) at 37°C.

The subject of test [1] is A. baumannii ΔlpxC MB9796. Put plainly: Broth microdilution MIC, A. baumannii MB9796. The conditions noted are these: Acinetobacter baumannii.
Source text: (§3) E. coli HS151 (ΔtolC) has been described previously. Gyrase inhibitor-resistant isolates (GYR101-108) were derived by selection for spontaneous resistance to MRL-770 or MRL-423 (Fig 1) in E. coli HS151 as described below. E. coli BW25113 and the Keio gene deletion collection based on BW25113 [25] were obtained from Thermo Fisher Scientific (Waltham, MA) and described in [26]. The plasmid-borne FQ resistance determinant, qnrVC3 [27], was kindly provided by D. Hooper (Massachusetts General Hospital). MB9796 (A. baumannii) is a derivative of MB9797 (ATCC19606) lacking lipopolysaccharide. The efflux-defective P. aeruginosa strain MB5890 (CB398) is a derivative of MB5919 (PAO1). MB2884 (E. coli) and CL15245 (K. pneumoniae) are clinical isolates from the Merck & Co., Inc., Kenilworth, NJ, USA, strain collection. S. aureus COL is a methicillin-resistant clinical isolate.
as §2
A general note: In broth dilution the organism is exposed to a series of concentrations in liquid medium.

For test [2], the system named is A. baumanii MB9797 (ATCC19606). The test is described as follows: Broth microdilution MIC, A. baumannii MB9797. As to conditions: Acinetobacter baumannii.
Source text: as §3, §2

For the next test, the system named is S. aureus (MRSA) COL. The test is described as follows: Broth microdilution MIC, S. aureus COL. The conditions noted are these: Staphylococcus aureus, MRSA.
Source text: as §3, §2

Test [3] relates to E. coli GYR103 GyrB L446Q. The test is described as follows: microbe, parasite or virus in culture. As to conditions: Escherichia coli.
Source text: as §3, §2
After the agar solidified, 5 μL of a saturated bacterial culture, grown in CAMH broth, were dispensed on the agar surface and allowed to dry at room temperature. […] To select for resistance, a 100 mm petri dish was filled with 25 mL CAMH agar containing 8 μg/mL MRL-770 or 0.5 μg/mL MRL-423 (Fig 1). The cells in 1 mL of an overnight culture of E. coli HS151 (~10^9 CFU/mL) were concentrated by centrifugation and spread onto the surface of an MRL-770 or MRL-423 containing plate. After the surface dried at room temperature the plate was incubated at 37°C overnight. Any colonies that arose were counted and an approximate frequency of resistance was calculated after confirming resistance by restreaking on media containg compound as well as measuring MICs (see Results). Genomic DNA from the parent strain (E. coli HS151) and purified (restreaked) resistant isolates was obtained with a GeneJET genomic DNA purification kit according to the manufacturer’s instructions (Fisher Scientific). Assembled whole genome mutant sequences were then compared to the parent strain and polymorphisms were identified as described.

For test [4], the system named is E. coli GYR108 GyrB L470I/V467L. The test is described as follows: microbe, parasite or virus in culture. The conditions noted are these: Escherichia coli.
Source text: as §1, §2
After the agar solidified, 5 μL of a saturated bacterial culture, grown in CAMH broth, were dispensed on the agar surface and allowed to dry at room temperature. […] After the surface dried at room temperature the plate was incubated at 37°C overnight. […] Genomic DNA from the parent strain (E. coli HS151) and purified (restreaked) resistant isolates was obtained with a GeneJET genomic DNA purification kit according to the manufacturer’s instructions (Fisher Scientific). Assembled whole genome mutant sequences were then compared to the parent strain and polymorphisms were identified as described.

A further test deals with E. coli CIP101 GyrA D87N. The test is described as follows: microbe, parasite or virus in culture. The conditions noted are these: Escherichia coli. How it is done:
as §2

A further test deals with E. coli HS151 (qnrVC). Put plainly: Broth microdilution MIC, E. coli HS151 (qnrVC). The conditions noted are these: Escherichia coli.
Source text: as §3, §2

For another test, the system named is E. coli BW25113 ΔtolC. Put plainly: Broth microdilution MIC, E. coli BW25113 ΔtolC. As to conditions: Escherichia coli.
Source text: as §3, §2
The yacG deletion allele from the Keio collection was amplified by PCR (primers: […] and […]) and moved to BW25113 ΔtolC as described below. The E. coli strain BW25113 ΔtolC containing pKD46 [25] was used to inoculate SOB (Invitrogen)/0.2% w/v arabinose (Sigma Aldrich)/ampicillin (100 μg/mL) and grown overnight at 30°C. The overnight culture was then diluted 1/40 into 20 mL fresh SOB/0.2% w/v arabinose/ampicillin (100 μg/mL) and grown at 30°C while shaking for ~3 hrs until OD600 = 0.5. […]

Test [5] deals with E. coli BW25113 ΔtolC/ΔyacG. The test is described as follows: Broth microdilution MIC, E. coli BW25113 ΔtolC/ΔyacG. As to conditions: Escherichia coli, BW25113. How it is done:
as §2
The yacG deletion allele from the Keio collection was amplified by PCR (primers: […] and […]) and moved to BW25113 ΔtolC as described below. The E. coli strain BW25113 ΔtolC containing pKD46 [25] was used to inoculate SOB (Invitrogen)/0.2% w/v arabinose (Sigma Aldrich)/ampicillin (100 μg/mL) and grown overnight at 30°C. The overnight culture was then diluted 1/40 into 20 mL fresh SOB/0.2% w/v arabinose/ampicillin (100 μg/mL) and grown at 30°C while shaking for ~3 hrs until OD600 = 0.5. Cells were pelleted by centrifugation at 4000 rpm for 10 min, washed with 40 mL ice cold sterile, distilled H2O, then 3 x 1 mL ice cold 10% glycerol followed by centrifugation at 5000 g for 3 minutes. The pellet was resuspended in 100 μL of 10% glycerol (1/200 of starting culture). For transformation, 5 μL of gel purified PCR product was added to 50 μL cells, mixed, and immediately electroporated in a 0.2 cm gap cuvette at 2.5kV, 25 μF, 200 Ω (BioRad, Hercules, CA USA). Electroporated cells were recovered in 1 mL SOC (Invitrogen)/0.2% arabinose at 37°C for 2 hours with shaking. Cells in amounts of 50 and 950 μL were then plated on LB agar supplemented with kanamycin (25 μg/mL) and incubated overnight at 37°C. Correct gene replacements were verified by PCR.

For test [6], the system named is DNA synthesis in E. coli JL553. Put plainly: Macromolecule synthesis labeling. As to conditions: E. coli JL553, 25 min exposure, labeled precursor incorporation. How it is done: Macromolecule synthesis profiling was conducted as described by Montgomery, et al. with minor modifications. E. coli strain JL553 (tolC, lysE) was used to measure inhibition of DNA, RNA, protein, peptidoglycan and phospholipid biosynthesis while E. coli MB5500 (lpxC [envA1], galE; Merck & Co., Inc., Kenilworth, NJ, USA, strain collection) was used to measure inhibition of lipopolysaccharide biosynthesis. Radioisotope labeled precursors were used at the following final concentrations [2-^14C]-thymidine (2.5 μCi/mL), [^14C(U)]-uridine (0.5 μCi/mL), L-[4, 5-^3H]-leucine (5 μCi/mL), [2-^3H]-glycerol (2 μCi/mL), [^3H]-diaminopimelic acid (3 μCi/mL), D-[1-^14C]-galactose (0.5 μCi/mL). Compound concentrations (3-fold serial dilutions) were chosen to place the minimum inhibitory concentration (see below) near the center of the dose range. Labeled cultures were incubated with compound for 25 min; stopped with trichloroacetic acid, filtered and incorporation was measured as described. Percent inhibition of incorporation was calculated relative to an untreated control culture for each labeled precursor and plotted with GraphPad Prism.

The next test relates to E. coli HS151. Put plainly: In vitro time-dependent bactericidal study. As to conditions: E. coli HS151; at the 4 hour time point. Here is the method: A culture of E. coli HS151 in CAMH broth was grown overnight (18 hrs.) at 37°C, diluted 1:10,000 in 200 mL of fresh CAMH broth and further incubated for 1 hour at 37°C with shaking. A time-zero sample was then removed and 20 mL portions of the remaining culture were transferred into 125 mL vented flasks to which were added MRL-1082 or control antibiotics, at the indicated concentrations. These flasks were then incubated at 37°C with shaking (70 rpm). Samples were withdrawn at the indicated times, plated on blood agar (trypticase soy agar with 5% sheep blood, Becton-Dickinson) and, following overnight growth at 37°C, colonies were counted to determine CFU/mL.

Values after ≈ are worked out from the molar mass of the structure shown. A value given as a limit tells only on which side of the number the result lay.

Turning to `O=C(O)c1cn(C2CC2)c2cc(N3CCNCC3)c(F)cc2c1=O` [ciprofloxacin], the MIC with E. coli HS151 (ΔtolC) is 4 ng/mL (≈ 0.0121 µM); in [1], 0.0625 µg/mL (≈ 0.189 µM); in test [2], > 0.125 µg/mL; with S. aureus (MRSA) COL, > 0.125 µg/mL; in test [3], 3.9 ng/mL (≈ 0.0118 µM); in [4], 3.9 ng/mL (≈ 0.0118 µM). Further, the MIC in the test on E. coli CIP101 GyrA D87N came to 0.0312 µg/mL (≈ 0.0943 µM); against E. coli HS151 (qnrVC), 0.03 µg/mL (≈ 0.0905 µM); in the test on E. coli BW25113 ΔtolC, 4 ng/mL (≈ 0.0121 µM); in test [5] it was 4 ng/mL (≈ 0.0121 µM). In addition, the “inhibition of macromolecule synthesis” value in test [6] is “Dose-dependent, selective inhibition of DNA synthesis”. Moreover, the “culture viability, below lower limit of quantitation” value in the test on E. coli HS151 is on record as < 20 CFU/mL.
